Laboratory results published in PMC10580383, “Development of Melanocortin 4 Receptor Agonists by Exploiting Animal-Derived Macrocyclic, Disulfide-Rich Peptide Scaffolds” (ACS Pharmacology & Translational Science, 2023).
Where a SMILES comes first, the peptide text is derived from it. Bridges are numbered along the chain shown (N, C = ends). [ ]: non-standard residue; d: D form.

Legend:
human MC4R [1] = target: T1, human MC4R (Homo sapiens, UniProt P32245); assay: nanoluciferase complementation assay MC4R-SmBit / β-arrestin-2-LgBit (β-arrestin-2 recruitment); format: cell-based; details: for increased potency in β-arrestin-2 recruitment as compared to α-MSH: ratio of EC50 values, nanoluciferase complementation MC4R-SmBit/β-arrestin-2-LgBit; for Emax: read-out: increase in efficacy (Emax) of β-arrestin-2 recruitment compared to α-MSH
T1 construct: expressed in transfected cells; host or cells: HEK293T, transient co-transfection
Method: (§1) Figure 5 Biosensor characterization of Pr4LP1 and Ar3LP1 peptides acting as agonists at MC4R. […] Data are represented as means ± SEM for all experimental replicates and were performed in triplicate from n ≥ 3 independent experiments.
In an attempt to quantify signaling bias using the Black–Leff operational model by calculating ΔΔlog(τ/KA),[27]–[29] we identified a trend for preferred β-arrestin-2 recruitment over Gαs coupling, albeit not significant (data not shown).
(§2) The plasmid constructs used to show interactions between human MC4R and Gαs protein and/or β-arrestin-2 were designed with fused SmBit and LgBit proteins, that upon complementation form the fully functional nanoluciferase enzyme that can produce detectable bioluminescence upon addition of the substrate furimazine. For the Gαs coupling, we used a LgBit fused at the C-terminus of MC4R (MC4R-LgBit) and cotransfected with the Gαs-SmBit construct. For the β-arrestin-2 recruitment assay, we used a C-terminally fused MC4R-SmBit and the β-arrestin-2-LgBit constructs. The cotransfection ratio was 1:10 (Gαs/β-arrestin-2/receptor). Cells were harvested, washed, and resuspended in fresh medium 24 h post-transfection. Approximately 5 × 10^4 cells/well were distributed in precoated 96-well white plates and allowed to adhere overnight. On an experimental day, cells were washed with HBSS and maintained in HBSS (80 μL/well). The furimazine substrate for the luciferase (50×) stock was diluted at 1× with HBSS, and 10 μL/well was added to all assay wells and incubated for 12 min before addition of ligands. Ligand dilutions were prepared at 10× final concentration in HBSS, and 10 μL/well was added to the assay wells. Plates were read 5 min following ligand addition using a ClarioStar equipped with a nanoluc-compatible optic module (BMG Labtech). […] EC50/Emax values were calculated via a nonlinear regression analysis.
Target sequence in this assay (P32245 whole entry): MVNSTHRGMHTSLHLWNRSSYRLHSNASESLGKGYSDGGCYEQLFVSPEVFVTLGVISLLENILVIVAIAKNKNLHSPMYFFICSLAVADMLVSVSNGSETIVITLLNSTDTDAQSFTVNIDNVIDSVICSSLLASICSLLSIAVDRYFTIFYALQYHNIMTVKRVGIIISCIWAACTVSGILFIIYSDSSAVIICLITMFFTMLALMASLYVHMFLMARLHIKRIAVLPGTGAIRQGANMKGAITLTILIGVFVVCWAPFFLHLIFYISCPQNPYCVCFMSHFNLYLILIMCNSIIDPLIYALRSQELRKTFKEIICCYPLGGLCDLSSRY
Target sequence in this assay (P32121 whole entry partner): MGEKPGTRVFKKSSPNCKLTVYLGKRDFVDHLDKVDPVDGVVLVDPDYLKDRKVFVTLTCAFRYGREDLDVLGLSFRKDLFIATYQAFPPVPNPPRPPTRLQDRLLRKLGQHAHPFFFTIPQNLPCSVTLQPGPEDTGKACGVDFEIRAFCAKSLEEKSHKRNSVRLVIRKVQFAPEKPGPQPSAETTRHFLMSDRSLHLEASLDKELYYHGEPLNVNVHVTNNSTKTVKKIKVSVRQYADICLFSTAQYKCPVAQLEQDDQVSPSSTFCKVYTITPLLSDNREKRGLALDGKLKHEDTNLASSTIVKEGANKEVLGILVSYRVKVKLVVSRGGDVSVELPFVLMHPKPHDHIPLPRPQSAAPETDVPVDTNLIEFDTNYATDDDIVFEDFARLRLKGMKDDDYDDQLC

human MC4R [2] = target: T1, human MC4R; assay: nanoluciferase complementation assay MC4R-LgBit / Gαs-SmBit (Gαs coupling); format: cell-based; details: for increase in efficacy in recruiting Gαs compared to α-MSH: nanoluciferase complementation MC4R-LgBit/Gαs-SmBit, normalized to α-MSH maximum response
Method: We proceeded with more detailed pharmacological characterization of Pr4LP1 and Ar3LP1 to gain more insights into the signaling pathways that follow MC4R stimulation.
as §1, §2
Target sequence in this assay (P32245 whole entry): as the sequence (P32245 whole entry) above

| Compound | EC50 (human MC4R [1]) | increased potency in β-arrestin-2 recruitment as compared to α-MSH (human MC4R [1]) | Emax (human MC4R [1]) | EC50 (human MC4R [2]) | increase in efficacy in recruiting Gαs compared to α-MSH (human MC4R [2]) |
| --- | --- | --- | --- | --- | --- |
| CC(C)[C@@H]1NC(=O)[C@H](Cc2ccc(O)cc2)NC(=O)[C@H](Cc2c[nH]c3ccccc23)NC(=O)[C@@H](NC(=O)[C@H](Cc2ccccc2)NC(=O)CN)CSSC[C@@H](C(=O)N[C@@H](CC(N)=O)C(N)=O)NC(=O)[C@H](CCCNC(=N)N)NC(=O)[C@H](CCCNC(=N)N)NC(=O)[C@H](Cc2ccc(O)cc2)NC(=O)[C@@H]2CSSC[C@H](NC1=O)C(=O)N1CCC[C@H]1C(=O)N[C@@H](Cc1c[nH]cn1)C(=O)N[C@H](Cc1ccccc1)C(=O)N[C@@H](Cc1c[nH]cn1)C(=O)N[C@@H](Cc1c[nH]c3ccccc13)C(=O)N2 [Ar3LP1] (H-GFCWYVCPH[dF]HWCYRRCN-NH2; disulfide 3-17, 7-13) | 25.2 nM | approximately 20 fold | 82% | 0.702 nM | 25% |
| CC(C)C[C@H](NC(=O)[C@H](CCCNC(=N)N)NC(=O)CNC(=O)CNC(=O)[C@@H](N)CCCNC(=N)N)C(=O)N[C@H]1CSSC[C@@H](C(=O)N[C@H](C(=O)NCC(=O)N[C@@H](CCCNC(=N)N)C(N)=O)C(C)C)NC(=O)[C@H](Cc2ccccc2)NC(=O)[C@@H]2CSSC[C@H](NC(=O)[C@H](Cc3ccc(O)cc3)NC1=O)C(=O)N1CCC[C@H]1C(=O)N[C@@H](Cc1c[nH]cn1)C(=O)N[C@H](Cc1ccccc1)C(=O)N[C@@H](Cc1c[nH]cn1)C(=O)N[C@@H](Cc1c[nH]c3ccccc13)C(=O)N2 [Pr4LP1] (H-RGGRLCYCPH[dF]HWCFCVGR-NH2; disulfide 6-16, 8-14) | 23.5 nM | approximately 20 fold | 99% | 0.193 nM | 8.8% |
